Test results from PubChem BioAssay AID250 (DTP/NCI, 2004).
Values joined by “and” are separate entries in the source; they are usually repeats but may differ in a detail not shown here. Identical values can stand only once. Inconclusive results and toxic doses are left out. The calls were made as follows: active = survival T/C of 150% or more; inactive = T/C below 125% in these data.

Tested on: BDF1 mice, L1210 leukemia sc, survival T/C
Assay: NCI In Vivo Anticancer Drug Screen. Data for tumor model L1210 Leukemia (subcutaneous) in B6D2F1 (BDF1) mice
Conditions: endpoint: median survival time, higher = longer survival
Protocol: The antitumor activity of compounds was measured in mice bearing transplantable tumors. Survival or tumor size were measured and the results are expressed as the measurement made in the treated group (T) divided by the measurement made in the vehicle treated control group (C). The tumor model used in this assay is L1210 Leukemia (subcutaneous) in B6D2F1 (BDF1) mice

[1] = dose: 65.0 mg/kg/injection, schedule: Q01DX Z (sc), vehicle: saline

Measured: T/C

CCN(CC)P(=O)(N1CC1)N1CC1
inactive: dose: 1.08 mg/kg/injection, schedule: Q01DX Z (sc), vehicle: saline 100 % of control | dose: 1.8 mg/kg/injection, schedule: Q01DX Z (sc), vehicle: saline 100 % of control | dose: 3.0 mg/kg/injection, schedule: Q01DX Z (sc), vehicle: saline 110 % of control | dose: 5.0 mg/kg/injection, schedule: Q01DX Z (sc), vehicle: saline 115 % of control | dose: 39.0 mg/kg/injection, schedule: Q01DX Z (sc), vehicle: saline 111 % of control | [1] 111 % of control | dose: 108.0 mg/kg/injection, schedule: Q01DX Z (sc), vehicle: saline 100 % of control
active: dose: 8.4 mg/kg/injection, schedule: Q01DX Z (sc), vehicle: saline 170 % of control and 194 % of control | dose: 14.0 mg/kg/injection, schedule: Q01DX Z (sc), vehicle: saline 150 % of control and 183 % of control | dose: 23.0 mg/kg/injection, schedule: Q01DX Z (sc), vehicle: saline 155 % of control

CCOC(=O)CCC(NC(=O)N(CCCl)CCCl)C(=O)OCC (stereo not given)
inactive: dose: 65.0 mg/kg/injection, schedule: Q01DX Z (sc), vehicle: water 106 % of control | dose: 108.0 mg/kg/injection, schedule: Q01DX Z (sc), vehicle: water 112 % of control | dose: 180.0 mg/kg/injection, schedule: Q01DX Z (sc), vehicle: water 100 % of control | dose: 300.0 mg/kg/injection, schedule: Q01DX Z (sc), vehicle: water 100 % of control | dose: 500.0 mg/kg/injection, schedule: Q01DX Z (sc), vehicle: water 112 % of control

Nc1nc(=S)c2ncn(C3OC(COC(=O)c4ccccc4)C(OC(=O)c4ccccc4)C3OC(=O)c3ccccc3)c2[nH]1 (stereo not given)
inactive: dose: 23.0 mg/kg/injection, schedule: Q01DX Z (sc), vehicle: methylcellulose (MC) 100 % of control | dose: 39.0 mg/kg/injection, schedule: Q01DX Z (sc), vehicle: methylcellulose (MC) 100 % of control | dose: 65.0 mg/kg/injection, schedule: Q01DX Z (sc), vehicle: methylcellulose (MC) 110 % of control | dose: 108.0 mg/kg/injection, schedule: Q01DX Z (sc), vehicle: methylcellulose (MC) 100 % of control and 112 % of control | dose: 180.0 mg/kg/injection, schedule: Q01DX Z (sc), vehicle: methylcellulose (MC) 108 % of control | dose: 300.0 mg/kg/injection, schedule: Q01DX Z (sc), vehicle: methylcellulose (MC) 100 % of control | dose: 500.0 mg/kg/injection, schedule: Q01DX Z (sc), vehicle: methylcellulose (MC) 91 % of control

O=C(O)c1cc(=O)[nH]c(=O)[nH]1
inactive: [1] 100 % of control | dose: 180.0 mg/kg/injection, schedule: Q01DX Z (sc), vehicle: saline 100 % of control | dose: 300.0 mg/kg/injection, schedule: Q01DX Z (sc), vehicle: saline 100 % of control

COC1=C(N)C(=O)c2nc(-c3nc(C(=O)O)c(C)c(-c4ccc(OC)c(OC)c4O)c3N)ccc2C1=O
inactive: dose: 0.02 mg/kg/injection, schedule: Q01DX009 (ip), vehicle: water 92 % of control | dose: 0.02 mg/kg/injection, schedule: Q01DX009 (sc), vehicle: water 93 % of control | dose: 0.05 mg/kg/injection, schedule: Q01DX009 (ip), vehicle: water 96 % of control | dose: 0.05 mg/kg/injection, schedule: Q01DX009 (sc), vehicle: water 98 % of control | dose: 0.1 mg/kg/injection, schedule: Q01DX009 (ip), vehicle: water 96 % of control | dose: 0.1 mg/kg/injection, schedule: Q01DX009 (sc), vehicle: water 96 % of control | dose: 0.2 mg/kg/injection, schedule: Q01DX009 (ip), vehicle: water 93 % of control | dose: 0.2 mg/kg/injection, schedule: Q01DX009 (sc), vehicle: water 94 % of control | dose: 0.25 mg/kg/injection, schedule: Q01DX009 (sc), vehicle: water 104 % of control | dose: 0.4 mg/kg/injection, schedule: Q01DX009 (ip), vehicle: water 102 % of control | dose: 0.4 mg/kg/injection, schedule: Q01DX009 (sc), vehicle: water 98 % of control | dose: 0.5 mg/kg/injection, schedule: Q01DX009 (sc), vehicle: water 94 % of control and 106 % of control | dose: 1.0 mg/kg/injection, schedule: Q01DX009 (sc), vehicle: water 96 % of control and 101 % of control | dose: 2.0 mg/kg/injection, schedule: Q01DX009 (sc), vehicle: water 94 % of control and 96 % of control | dose: 4.0 mg/kg/injection, schedule: Q01DX009 (sc), vehicle: water 94 % of control
